Data published in patent US20240368159A1, “HPK1 DEGRADERS, COMPOSITIONS COMPRISING THE HPK1 DEGRADER, AND METHODS OF USING THE SAME” (BIOFRONT LTD, priority 2021, published 2024).

What was measured:
HPK1 protein [1] = target: T1, HPK1 protein (Homo sapiens, UniProt Q92918); assay: HPK1 enzyme inhibition assay (ADP-Glo); format: biochemical; details: MBP substrate, ATP, ADP-Glo readout
T1 construct: purchased Signal Chem M23-11G-10
T1 sequence (Q92918 1-346 limits assumed): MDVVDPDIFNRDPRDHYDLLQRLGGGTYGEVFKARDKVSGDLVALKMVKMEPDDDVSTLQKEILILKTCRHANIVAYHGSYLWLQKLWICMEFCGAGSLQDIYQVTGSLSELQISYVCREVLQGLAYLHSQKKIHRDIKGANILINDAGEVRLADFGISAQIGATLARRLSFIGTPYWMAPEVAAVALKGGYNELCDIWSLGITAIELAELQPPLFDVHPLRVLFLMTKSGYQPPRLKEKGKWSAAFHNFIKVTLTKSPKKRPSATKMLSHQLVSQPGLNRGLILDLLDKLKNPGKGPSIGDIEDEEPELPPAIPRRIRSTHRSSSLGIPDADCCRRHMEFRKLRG
Outline: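 Recombinant human HPK1 preincubated with compound 60 min at 25 °C, then reaction with MBP (0.2 ug/ul, 2× stock) and ATP (20 μM, 2× stock) 60 min at 25 °C. ADP formed detected by ADP-Glo after ATP depletion and conversion to ATP; IC50 calculated from signal.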

HPK1 protein [2] = target: T2, HPK1 protein (Homo sapiens, UniProt Q92918); assay: HPK1 protein degradation in human PBMC (western blot); format: cell-based; details: 18 h incubation
T2 construct: Frozen human PBMC were purchased from Shanghai OribioTech; host or cells: human PBMC
Description: HPK1 protein degradation in human PBMC: Frozen human PBMC were purchased from Shanghai OribioTech and recovered with culture medium (RMPI1640) prior to use. The cells were then incubated with a variety of concentrations of compound. After incubation for 18 h, the cells were collected and lysed. The protein concentration was determined by BCA protein assay kit from Thermo (23227). The HPK1 protein level was determined by western blots, using anti-human HPK1 polyclonal antibody from CST (4472S). Proteins were loaded into each well of the pre-casting gels and subjected to electrophoretic separation by SDS-PAGE. The protein resolved by SDS-PAGE were transferred to PVDF, blocked by 5% skim milk, and probed with anti-human HPK1 antibody or β-actin antibody from CST (3700S), using standard western blotting procedure.
T2 sequence (Q92918 whole entry): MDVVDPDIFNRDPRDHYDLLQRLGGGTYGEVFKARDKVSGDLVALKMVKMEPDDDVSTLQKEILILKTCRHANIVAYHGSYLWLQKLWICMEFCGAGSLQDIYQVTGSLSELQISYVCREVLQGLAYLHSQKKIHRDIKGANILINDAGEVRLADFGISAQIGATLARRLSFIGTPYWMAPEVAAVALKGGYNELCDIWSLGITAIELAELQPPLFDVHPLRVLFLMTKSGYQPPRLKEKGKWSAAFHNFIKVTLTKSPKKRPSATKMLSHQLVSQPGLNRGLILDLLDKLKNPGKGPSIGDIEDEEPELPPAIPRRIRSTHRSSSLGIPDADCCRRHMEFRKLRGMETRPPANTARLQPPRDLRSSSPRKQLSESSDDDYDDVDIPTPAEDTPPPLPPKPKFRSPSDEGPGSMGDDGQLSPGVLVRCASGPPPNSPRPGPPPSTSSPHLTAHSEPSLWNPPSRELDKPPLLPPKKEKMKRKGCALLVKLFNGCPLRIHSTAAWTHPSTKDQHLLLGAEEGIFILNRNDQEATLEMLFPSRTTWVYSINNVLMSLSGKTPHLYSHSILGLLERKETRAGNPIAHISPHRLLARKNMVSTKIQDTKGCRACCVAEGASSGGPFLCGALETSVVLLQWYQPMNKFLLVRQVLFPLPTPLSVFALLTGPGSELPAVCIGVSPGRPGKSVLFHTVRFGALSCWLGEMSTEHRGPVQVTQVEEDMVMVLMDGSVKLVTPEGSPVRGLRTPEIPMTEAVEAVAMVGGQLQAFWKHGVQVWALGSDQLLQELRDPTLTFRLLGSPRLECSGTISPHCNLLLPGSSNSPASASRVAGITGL

HPK1 protein [3] = target: T3, HPK1 protein (Mus musculus, UniProt P70218); assay: HPK1 protein degradation in mouse pan T cell (western blot); format: cell-based; details: 18 h incubation
T3 construct: the CD3+ T cell population was isolated from spleenocytes of mice; endogenous in cells; host or cells: primary mouse splenic CD3+ (pan) T cells
T3 sequence (P70218 1-827): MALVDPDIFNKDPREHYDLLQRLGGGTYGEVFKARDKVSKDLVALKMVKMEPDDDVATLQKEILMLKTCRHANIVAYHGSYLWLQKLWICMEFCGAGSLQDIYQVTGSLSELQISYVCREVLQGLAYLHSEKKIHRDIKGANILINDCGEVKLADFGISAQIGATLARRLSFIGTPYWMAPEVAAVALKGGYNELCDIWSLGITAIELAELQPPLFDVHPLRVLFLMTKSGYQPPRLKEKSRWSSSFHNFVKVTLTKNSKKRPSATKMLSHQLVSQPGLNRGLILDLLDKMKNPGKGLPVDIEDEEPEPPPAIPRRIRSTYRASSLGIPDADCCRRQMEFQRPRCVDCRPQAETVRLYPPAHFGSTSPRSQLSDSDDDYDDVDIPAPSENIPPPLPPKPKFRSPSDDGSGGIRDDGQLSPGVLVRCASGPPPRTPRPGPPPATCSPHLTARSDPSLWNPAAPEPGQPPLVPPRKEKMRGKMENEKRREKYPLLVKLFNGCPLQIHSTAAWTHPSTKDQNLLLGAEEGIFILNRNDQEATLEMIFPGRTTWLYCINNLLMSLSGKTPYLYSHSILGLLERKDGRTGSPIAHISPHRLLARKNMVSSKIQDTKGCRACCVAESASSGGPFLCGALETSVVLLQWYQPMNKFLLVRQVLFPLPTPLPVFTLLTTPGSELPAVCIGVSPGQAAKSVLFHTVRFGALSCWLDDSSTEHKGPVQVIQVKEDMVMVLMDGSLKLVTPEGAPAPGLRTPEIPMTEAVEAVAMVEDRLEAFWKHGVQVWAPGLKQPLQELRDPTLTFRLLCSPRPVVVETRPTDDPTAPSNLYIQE
Description: HPK1 protein degradation in mouse pan T cell: the CD3+ T cell population was isolated from spleenocytes of mice by using Pan T cell isolation kit from Miltenyi Biotec (130-095-130) following manufacture's instruction. The isolated T cells were then incubated with a variety of concentrations of compound. After incubation for 18 h, the cells were collected and lysed. The protein concentration was determined by BCA protein assay kit from Thermo (23227). The HPK1 protein level was determined by western blots, using anti-human HPK1 polyclonal antibody from CST (4472). Proteins were loaded into each well of the pre-casting gels and subjected to electrophoretic separation by SDS-PAGE. The protein resolved by SDS-PAGE were transferred to PVDF, blocked by 5% skim milk and probed with anti-human HPK1 antibody or β-actin antibody from CST (3700S), using following standard western blotting procedure.

HPK1 p-SLP-76 = HPK1 p-SLP-76 inhibition assay in human PBMC (HTRF); format: cell-based; details: 6 h compound, anti-CD3 stimulation 20 min
Description: Human PBMC were purchased from OriCells (FPB004F-C). Before compound treatment, PBMC were starved in PRMI-1640 medium supplemented with 0.5% FBS overnight. The cell density was adjusted to 1*10^7 cells/mL in assay medium (RPMI-1640 no phenol red with 0.5% FBS) and 16 μL cell suspension was transferred per well to a 384-well plate (Corning #3765). 6× solution of test compound was prepared in assay medium and 4 μL was added per well to the 384-well plate. The plate was then incubated at 37° C., 5% CO2 for 6 h. PBMC in 384-well plate were stimulated with anti-CD3 (BD Biosciences #555329, final conc. is 10 ug/mL) for 20 min at 37° C., 5% CO2 by adding 4 μL 6× antibody solution per well. Phospho-SLP76 HTRF kit was purchased from Cisbio (63ADK076PEH). 8 μL 4× Lysis Buffer was added to 384-well plate after anti-CD3 stimulation. The plate was centrifuged at 1,000 rpm for 1 min, shaken at 250 rpm for 60 min and centrifuged again at 1,000 rpm for 5 min. Afterwards the cell lysates were transferred to the assay plate (Greiner #784075) with 16 μL per well. 4 μL detection antibody mix per well prepared in Detection Buffer was added to the assay plate, followed by centrifugation at 1,000 rpm for 1 min and incubation at 25° C. overnight.

Row | SMILES | IC50 (HPK1 protein [1]) | Dmax (HPK1 protein [2]) | Dmax (HPK1 protein [3]) | IC50 (HPK1 p-SLP-76)
1 | CCc1c[nH]c2ncc(-c3cccc(N4CCN(C(=O)CCN5CCN(c6ccc7c(c6)C(=O)N(C6CCC(=O)NC6=O)C7=O)CC5)CC4=O)c3)c(Cl)c12 (stereo not drawn) [Example 21, 5-(4-(3-(4-(3-(4-chloro-3-ethyl-1H-pyrrolo[2,3-b]pyridin-5-yl)phenyl)-3-oxopiperazin-1-yl)-3-oxopropyl)piperazin-1-yl)-2-(2,6-dioxopiperidin-3-yl)isoindoline-1,3-dione] | 10 to 100 nM | 60% |  | 
2 | CCc1c[nH]c2ncc(-c3cccc(N4CCN(CCOC5CCN(c6cc7c(cc6F)C(=O)N(C6CCC(=O)NC6=O)C7=O)CC5)CC4=O)c3)c(Cl)c12 (stereo not drawn) [Example 26] | 10 to 100 nM | 86% | 91% | 
3 | CCc1c[nH]c2ncc(-c3cccc(N4CCN(CCC(=O)N5CCN(c6cc7c(cc6F)C(=O)N(C6CCC(=O)NC6=O)C7=O)CC5)CC4=O)c3)c(Cl)c12 (stereo not drawn) [Example 30, 5-(4-(3-(4-(3-(4-chloro-3-ethyl-1H-pyrrolo[2,3-b]pyridin-5-yl)phenyl)-3-oxopiperazin-1-yl)propanoyl)piperazin-1-yl)-2-(2,6-dioxopiperidin-3-yl)-6-fluoroisoindoline-1,3-dione] | 10 to 100 nM | 61% | 80% | 
4 | O=C1CCC(N2C(=O)c3ccc(N4CCC(OCC(=O)N5CCN(c6cccc(-c7cnc8[nH]cc(C9CC9)c8c7Cl)c6)C(=O)C5)CC4)cc3C2=O)C(=O)N1 (stereo not drawn) [Example 31] | 10 to 100 nM | 98% | 95% | 
5 | CCc1c[nH]c2ncc(-c3cccc(N4CCN(C(=O)CCOC5CCN(c6ccc7c(c6)C(=O)N(C6CCC(=O)NC6=O)C7=O)CC5)CC4=O)c3)c(Cl)c12 (stereo not drawn) [Example 32] | 10 to 100 nM | 78% | 90% | 
6 | CCc1c[nH]c2ncc(-c3cccc(N4CCN(CC5CCN(c6cc7c(cc6F)C(=O)N(C6CCC(=O)NC6=O)C7=O)CC5)CC4=O)c3)c(Cl)c12 (stereo not drawn) [Example 38, 5-(4-((4-(3-(4-chloro-3-ethyl-1H-pyrrolo[2,3-b]pyridin-5-yl)phenyl)-3-oxopiperazin-1-yl)methyl)piperidin-1-yl)-2-(2,6-dioxopiperidin-3-yl)-6-fluoro isoindoline-1,3-dione] | 10 to 100 nM | 30% | 90% | 
7 | O=C1CCC(N2C(=O)c3cc(F)c(N4CCC(OCCCN5CCN(c6cccc(-c7cnc8[nH]cc(CC(F)F)c8c7Cl)c6)C(=O)C5)CC4)cc3C2=O)C(=O)N1 (stereo not drawn) [Example 39, 5-(4-(3-(4-(3-(4-chloro-3-(2,2-difluoroethyl)-1H-pyrrolo[2,3-b]pyridin-5-yl)phenyl)-3-oxopiperazin-1-yl)propoxy)piperidin-1-yl)-2-(2,6-dioxopiperidin-3-yl)-6-fluoroisoindoline-1,3-dione] | 100 to 1000 nM | 85% | 80% | 
8 | O=C1CCC(N2C(=O)c3cc(F)c(N4CCC(OCCCN5CCN(c6cccc(-c7cnc8[nH]cc(C9CC9)c8c7Cl)c6)C(=O)C5)CC4)cc3C2=O)C(=O)N1 (stereo not drawn) [Example 40, 5-(4-(3-(4-(3-(4-chloro-3-cyclopropyl-1H-pyrrolo[2,3-b]pyridin-5-yl)phenyl)-3-oxopiperazin-1-yl)propoxy)piperidin-1-yl)-2-(2,6-dioxopiperidin-3-yl)-6-fluoroisoindoline-1,3-dione] | 10 to 100 nM | 88% | 95% | 
9 | O=C1CCC(N2C(=O)c3cc(F)c(N4CCN(CCCN5CCN(c6cccc(-c7cnc8[nH]cc(CC(F)F)c8c7Cl)c6)C(=O)C5)CC4)cc3C2=O)C(=O)N1 (stereo not drawn) [Example 41] | 10 to 100 nM | 90% | 95% | 
10 | CN(CC(=O)N1CCN(c2cccc(-c3cnc4[nH]cc(C5CC5)c4c3Cl)c2)C(=O)C1)C1CCN(c2cc3c(cc2F)C(=O)N(C2CCC(=O)NC2=O)C3=O)CC1 (stereo not drawn) [Example 42] | 10 to 100 nM | 40% | 95% | 
11 | CC(COC1CCN(c2cc3c(cc2F)C(=O)N(C2CCC(=O)NC2=O)C3=O)CC1)N1CCN(c2cccc(-c3cnc4[nH]cc(C5CC5)c4c3Cl)c2)C(=O)C1 (stereo not drawn) [Example 49, 5-(4-(2-(4-(3-(4-chloro-3-cyclopropyl-1H-pyrrolo[2,3-b]pyridin-5-yl)phenyl)-3-oxopiperazin-1-yl)propoxy)piperidin-1-yl)-2-(2,6-dioxopiperidin-3-yl)-6-fluoroisoindoline-1,3-dione] | 100 to 1000 nM | < 50% |  | 
12 | CCc1c[nH]c2ncc(-c3cccc(N4CCN(C(=O)CCN5CCN(C(=O)c6ccc(C)c(N7CCC(=O)NC7=O)c6)CC5)CC4=O)c3)c(Cl)c12 [Example 50, 1-(5-(4-(3-(4-(3-(4-chloro-3-ethyl-1H-pyrrolo[2,3-b]pyridin-5-yl)phenyl)-3-oxopiperazin-1-yl)-3-oxopropyl)piperazine-1-carbonyl)-2-methylphenyl)dihydro pyrimidine-2,4 (1H,3H)-dione] | ≤ 10 nM |  | 80% | > 10 µM
13 | O=C1CCC(N2Cc3cc(C4=CC5CCC(C4)N5CCCN4CCN(c5cccc(-c6cnc7[nH]cc(C8CC8)c7c6Cl)c5)C(=O)C4)ccc3C2=O)C(=O)N1 (stereo not drawn) [Example 64, 3-(5-(8-(3-(4-(3-(4-chloro-3-cyclopropyl-1H-pyrrolo[2,3-b]pyridin-5-yl)phenyl)-3-oxopiperazin-1-yl)propyl)-8-azabicyclo[3.2.1]oct-2-en-3-yl)-1-oxoisoindolin-2-yl)piperidine-2,6-dione] | ≤ 10 nM | 70% |  | 
14 | Cn1nc(N2CCC(=O)NC2=O)c2ccc(C3CCN(CCCN4CCN(c5cccc(-c6cnc7[nH]cc(C8CC8)c7c6Cl)c5)C(=O)C4)CC3)cc21 [Example 77, 1-(6-(1-(3-(4-(3-(4-chloro-3-cyclopropyl-1H-pyrrolo[2,3-b]pyridin-5-yl)phenyl)-3-oxopiperazin-1-yl)propyl)piperidin-4-yl)-1-methyl-1H-indazol-3-yl)dihydro pyrimidine-2,4 (1H,3H)-dione] | ≤ 10 nM |  | 95% | ≤ 0.3 µM
